According to US8871280B1, “Compositions and methods for treating fungal activity in plants or soil” (The United States of America, as represented by the …, priority 2011, dated 2014):

What was measured:
Rhizoctonia solani [1] = assay: Poison food technique (contact action), mycelial growth inhibition in PDA; type: cell-based, Rhizoctonia solani AG-4, isolate Rs 23A; conditions: for PoisonB1 % inhibition: poison bed experiment 1; for PoisonB2 % inhibition: poison bed experiment 2
Procedure: (§1) Fungal isolate and preparation of inoculum: Rhizoctonia solani AG-4, isolate Rs 23A is a highly virulent pathogenic isolate which infects many vegetables, ornamentals and turfgrasses (Lewis, J. A., and G. C. Papavizas, Soil Biology and Biochemistry, 9:195-201 (1987)). The fungus was grown in potato dextrose agar (PDA) plates and fungal plugs from the freshly growing mycelium were mixed with moist sterilized cracked wheat in a 2 L flask for 15 days in dark at 22° C. (Lakshman, D. K., et al., Proceedings of the National Academy of Science, USA, 95: 6425-6429 (1998)). The infested wheat was air dried in a sterile hood for 3 days, blended in a homogenizer and sieved through a mesh and stored at 2° C. before soil inoculation. A dose response of the inocula was carried out by thoroughly mixing using 0.25, 0.5, 0.75, 1.0, 1.25 and 1.50 g inoculums per Kg dry weight potting soil plus sterile water to maintain 25-30% moisture and incubating at room temperature for two weeks before sowing cucumber (cv muncher) seeds with the infested soil. The percent germination and post-emergence damping off of cucumber seedlings were recorded. The lowest inoculums dose that induced 100% postemergence damping off was estimated to be 1 to 1.25 g/Kg soil for inocula prepared over the span of the experiments. For soil fumigation with plant extracts (PEs), each time the minimum inoculum dose giving rise to 100% damping off was used.
In vitro bioassays: Two in vitro bioassay methods were used to investigate the mycelial growth inhibitory potentials of PEs. In the poison food technique, test chemical/plant extract was mixed at concentrations of 15, 30, 45, 60, 75, and 150 μl per 20 ml autoclaved PDA at 50° C., poured on three sterile disposable plastic plates (100×15 mm, Fisherbrand) at 20 ml/plate and cooled to room temperature to solidify (Dhingra, O.D., and J. B. Sinclair, 1995, Basic Plant Pathology Methods, 2nd Edition, Lewis Publishers, Boca Raton and London). […] Each plate was seeded in the center with a 5 mm diameter agar disk of the freshly grown Rhizoctonia pathogen, mycelial side facing the medium, and sealed with stretched Parafilm® M (Fisher Scientific). The plates were incubated in the dark at room temperature and when the pathogen reached to the edge of the plates in the control treatment (soybean oil), radial measurement of fungal growth in plates treated with PEs were recorded by taking three measurements from each plate. The experiment was repeated one more time. The percent mycelial growth inhibition (MGI) due to PE was calculated using the following formula: […] where dc=Avg. radial growth in mm of pathogen in control plate; dt=avg. radial growth in mm of pathogen in treated plate.

Rhizoctonia solani [2] = assay: Filter disk fumigation method, mycelial growth inhibition on PDA; type: cell-based, Rhizoctonia solani AG-4, isolate Rs 23A; conditions: for Fumig1 % inhibition: fumigation experiment 1; for Fumig2 % inhibition: fumigation experiment 2
Procedure: as §1
In the second protocol, the chemical was kept not in direct contact with the fungus and we hypothesized that the plant extract will most likely influence the growth of the pathogen by fumigation action. In this approach, three sterile 15 mm filter paper (Whatman International Ltd, Maidstone, UK) disks were placed on the edge of each of three plates on the PDA. Each disk was impregnated in the center with various amounts (5-50 ul/disk) of the test solution/suspension. For negative control, only soybean oil was placed in the filter disk. […] The average radial growth was calculated and the experiment was repeated one more time. Percent growth inhibition was calculated as reported for poison bed assay.

Rhizoctonia solani [3] = assay: Fungicidal vs fungistatic potential (regrowth of mycelial plugs on fresh PDA, 7 days); type: cell-based, Rhizoctonia solani AG-4, isolate Rs 23A
Procedure: The fungicidal and fungistatic potential of the PEs were determined by the method described by Garber and Houstan (Garber R. H., and B. R. Houston, Phytopathology, 49: 449-450 (1959)). In brief, three 5 mm diameter plugs were taken from the peripheral mycelial growth from each plate and placed in a fresh PDA plate. Following incubation at room temperature for 7 days, observations were recorded for new mycelial growth (fungistatic) or no mycelial growth (fungicidal). As control, peripheral mycelial plugs from soybean oil amended PDA plates were checked for fresh mycelial growth in fresh PDA plates.

cucumber seeds = assay: Greenhouse assay of seed germination and phytotoxicity, soil treated with plant extract alone; conditions: in vivo
Procedure: Soil treatment: For each treatment, 300 g of dry greenhouse soli (Pro-mix, Premier Horticulture LTD, Red Hill, Pa.) was thoroughly mixed with Rhizoctonia inoculum and incubated for 15 days as described above. […] The infested soil treated with only the carrier solution served as an untreated control. Following the treatment, the soil was thoroughly stirred to mix the contents and incubated in a double polythene bag closed tightly in the dark at room temperature for four days for fumigation to occur. Following the incubation, the bag was opened to allow as much PE to dissipate as possible. This was done by sprinkling the surface soil with sterile water every other day, and stirring the soil once every day for seven days. For assay of effect on seed germination and phytotoxicity of the plant extracts, soil was treated with plant extract formulations alone.
Greenhouse studies: Treated soil from each treatment was distributed to 4-inch plastic pots into which 12 seeds of cucumbers (95-100% germination) were sown and lightly watered to keep soil moist. The treatments were color coded and pots were randomized across treatment. All plants were kept in a greenhouse between 20° C. (night) to 26° C. (day) with 14 h of light. There were three pots per treatment in each experiment, and the experiment was repeated three times. As positive control, a broad spectrum popular soil fungicide Banrot® 40 WP (The Scotts Company, Ohio) was used following manufacturer's recommendation to control the disease. Total number of seedlings without any sign of damping off in each pot was recorded and percentage of disease suppression were calculated four weeks after sowing cucumber seeds.

Rhizoctonia solani [4] = assay: Greenhouse suppression of damping off of cucumber seedlings in R. solani infested soil amended with plant extract; type: in vivo, Rhizoctonia solani AG-4, isolate Rs 23A

Compound `C=CCc1ccc(OC)cc1` has a PoisonB1 % inhibition (Rhizoctonia solani [1]; amount oil 15 μL/20 mL plate) of 94%, a PoisonB2 % inhibition (Rhizoctonia solani [1]; amount oil 15 μL/20 mL plate) of 13% and a PoisonB1 % inhibition (Rhizoctonia solani [1]; amount oil 30 μL/20 mL plate) of 100%. The PoisonB2 % inhibition (Rhizoctonia solani [1]; amount oil 30 μL/20 mL plate) was 56%, the PoisonB1 % inhibition (Rhizoctonia solani [1]; amount oil 45 μL/20 mL plate) was 100% and the PoisonB2 % inhibition (Rhizoctonia solani [1]; amount oil 45 μL/20 mL plate) was 92%. For the same compound, the PoisonB1 % inhibition (Rhizoctonia solani [1]; amount oil 60 μL/20 mL plate) was 100%, the PoisonB2 % inhibition (Rhizoctonia solani [1]; amount oil 60 μL/20 mL plate) was 100% and the PoisonB1 % inhibition (Rhizoctonia solani [1]; amount oil 75 μL/20 mL plate) was 100%. For the same compound, the PoisonB2 % inhibition (Rhizoctonia solani [1]; amount oil 75 μL/20 mL plate) was 100%, the PoisonB1 % inhibition (Rhizoctonia solani [1]; amount oil 150 μL/20 mL plate) was 100% and the PoisonB2 % inhibition (Rhizoctonia solani [1]; amount oil 150 μL/20 mL plate) was 100%. The “Inhibition of R. solani growth by contact (poison bed assay), in words” value (Rhizoctonia solani [1]; in vitro, PDA) was “potent inhibitors”, the Fumig1 % inhibition (Rhizoctonia solani [2]; amount oil 15 μL/20 mL plate) was 95% and the Fumig2 % inhibition (Rhizoctonia solani [2]; amount oil 15 μL/20 mL plate) was 97%. It also gave a Fumig1 % inhibition (Rhizoctonia solani [2]; amount oil 30 μL/20 mL plate) of 97%, a Fumig2 % inhibition (Rhizoctonia solani [2]; amount oil 30 μL/20 mL plate) of 102% and a Fumig1 % inhibition (Rhizoctonia solani [2]; amount oil 45 μL/20 mL plate) of 97%. The Fumig2 % inhibition (Rhizoctonia solani [2]; amount oil 45 μL/20 mL plate) was 102%, the Fumig1 % inhibition (Rhizoctonia solani [2]; amount oil 60 μL/20 mL plate) was 97% and the Fumig2 % inhibition (Rhizoctonia solani [2]; amount oil 60 μL/20 mL plate) was 100%. It also gave a Fumig1 % inhibition (Rhizoctonia solani [2]; amount oil 75 μL/20 mL plate) of 98%, a Fumig2 % inhibition (Rhizoctonia solani [2]; amount oil 75 μL/20 mL plate) of 103% and a Fumig1 % inhibition (Rhizoctonia solani [2]; amount oil 150 μL/20 mL plate) of 99%. For the same compound, the Fumig2 % inhibition (Rhizoctonia solani [2]; amount oil 150 μL/20 mL plate) was 103%, the “Inhibition of R. solani growth by fumigation action, in words” value (Rhizoctonia solani [2]; in vitro, filter disk) was “potent inhibitors” and the “Effect (fumigation)” value (Rhizoctonia solani [3]; amount oil 15 μL/20 mL plate) was “S”. For the same compound, the “Effect (poison bed, contact action)” value (Rhizoctonia solani [3]; amount oil 15 μL/20 mL plate) was “S”, the “Effect (fumigation)” value (Rhizoctonia solani [3]; amount oil 30 μL/20 mL plate) was “S” and the “Effect (poison bed, contact action)” value (Rhizoctonia solani [3]; amount oil 30 μL/20 mL plate) was “S”. For the same compound, the “Effect (fumigation)” value (Rhizoctonia solani [3]; amount oil 45 μL/20 mL plate) was “S”, the “Effect (poison bed, contact action)” value (Rhizoctonia solani [3]; amount oil 45 μL/20 mL plate) was “S” and the “Effect (fumigation)” value (Rhizoctonia solani [3]; amount oil 60 μL/20 mL plate) was “S”. The “Effect (poison bed, contact action)” value (Rhizoctonia solani [3]; amount oil 60 μL/20 mL plate) was “S”, the “Effect (fumigation)” value (Rhizoctonia solani [3]; amount oil 75 μL/20 mL plate) was “S” and the “Effect (poison bed, contact action)” value (Rhizoctonia solani [3]; amount oil 75 μL/20 mL plate) was “S”. For the same compound, the “Effect (fumigation)” value (Rhizoctonia solani [3]; amount oil 150 μL/20 mL plate) was “S”, the “Effect (poison bed, contact action)” value (Rhizoctonia solani [3]; amount oil 150 μL/20 mL plate) was “S” and the “Fungicidal vs fungistatic nature” value (Rhizoctonia solani [3]; in vitro, fumigation and contact action) was “fungistatic”. For the same compound, the “% Seed germination (+ PE only)” value (cucumber seeds) was 75.00%, the “Avg. seed germination (+ PE only)” value (cucumber seeds) was 9.00 and the “% Disease suppression (+ PE + R. solani)” value (Rhizoctonia solani [4]; cucumber damping off, soil amendment at 0.3% (v/w), four weeks after sowing) was 58.33%. For the same compound, the “Avg. seed Germination (+ PE + R. solani)” value (Rhizoctonia solani [4]; cucumber, 12 seeds sown per pot, infested soil amended with 0.3% PE) was 7.00.

For `C=CC(C)(O)CCC=C(C)CCC=C(C)C` (mixture of isomers) [Nerolidol], the PoisonB1 % inhibition (Rhizoctonia solani [1]; amount oil 15 μL/20 mL plate) was 71%, the PoisonB2 % inhibition (Rhizoctonia solani [1]; amount oil 15 μL/20 mL plate) was 78% and the PoisonB1 % inhibition (Rhizoctonia solani [1]; amount oil 30 μL/20 mL plate) was 78%. For the same compound, the PoisonB2 % inhibition (Rhizoctonia solani [1]; amount oil 30 μL/20 mL plate) was 81%, the PoisonB1 % inhibition (Rhizoctonia solani [1]; amount oil 45 μL/20 mL plate) was 83% and the PoisonB2 % inhibition (Rhizoctonia solani [1]; amount oil 45 μL/20 mL plate) was 87%. It also gave a PoisonB1 % inhibition (Rhizoctonia solani [1]; amount oil 60 μL/20 mL plate) of 84%, a PoisonB2 % inhibition (Rhizoctonia solani [1]; amount oil 60 μL/20 mL plate) of 90% and a PoisonB1 % inhibition (Rhizoctonia solani [1]; amount oil 75 μL/20 mL plate) of 87%. It also gave a PoisonB2 % inhibition (Rhizoctonia solani [1]; amount oil 75 μL/20 mL plate) of 92%, a PoisonB1 % inhibition (Rhizoctonia solani [1]; amount oil 150 μL/20 mL plate) of 89% and a PoisonB2 % inhibition (Rhizoctonia solani [1]; amount oil 150 μL/20 mL plate) of 99%. The Fumig1 % inhibition (Rhizoctonia solani [2]; amount oil 15 μL/20 mL plate) was 0%, the Fumig2 % inhibition (Rhizoctonia solani [2]; amount oil 15 μL/20 mL plate) was 0% and the Fumig1 % inhibition (Rhizoctonia solani [2]; amount oil 30 μL/20 mL plate) was 0%. For the same compound, the Fumig2 % inhibition (Rhizoctonia solani [2]; amount oil 30 μL/20 mL plate) was 40%, the Fumig1 % inhibition (Rhizoctonia solani [2]; amount oil 45 μL/20 mL plate) was 0% and the Fumig2 % inhibition (Rhizoctonia solani [2]; amount oil 45 μL/20 mL plate) was 42%. For the same compound, the Fumig1 % inhibition (Rhizoctonia solani [2]; amount oil 60 μL/20 mL plate) was 0%, the Fumig2 % inhibition (Rhizoctonia solani [2]; amount oil 60 μL/20 mL plate) was 41% and the Fumig1 % inhibition (Rhizoctonia solani [2]; amount oil 75 μL/20 mL plate) was 0%. For the same compound, the Fumig2 % inhibition (Rhizoctonia solani [2]; amount oil 75 μL/20 mL plate) was 42%, the Fumig1 % inhibition (Rhizoctonia solani [2]; amount oil 150 μL/20 mL plate) was 0% and the Fumig2 % inhibition (Rhizoctonia solani [2]; amount oil 150 μL/20 mL plate) was 41%. For the same compound, the “Effect (fumigation)” value (Rhizoctonia solani [3]; amount oil 15 μL/20 mL plate) was “S”, the “Effect (poison bed, contact action)” value (Rhizoctonia solani [3]; amount oil 15 μL/20 mL plate) was “S” and the “Effect (fumigation)” value (Rhizoctonia solani [3]; amount oil 30 μL/20 mL plate) was “S”. For the same compound, the “Effect (poison bed, contact action)” value (Rhizoctonia solani [3]; amount oil 30 μL/20 mL plate) was “S”, the “Effect (fumigation)” value (Rhizoctonia solani [3]; amount oil 45 μL/20 mL plate) was “S” and the “Effect (poison bed, contact action)” value (Rhizoctonia solani [3]; amount oil 45 μL/20 mL plate) was “S”. For the same compound, the “Effect (fumigation)” value (Rhizoctonia solani [3]; amount oil 60 μL/20 mL plate) was “S”, the “Effect (poison bed, contact action)” value (Rhizoctonia solani [3]; amount oil 60 μL/20 mL plate) was “S” and the “Effect (fumigation)” value (Rhizoctonia solani [3]; amount oil 75 μL/20 mL plate) was “S”. For the same compound, the “Effect (poison bed, contact action)” value (Rhizoctonia solani [3]; amount oil 75 μL/20 mL plate) was “S”, the “Effect (fumigation)” value (Rhizoctonia solani [3]; amount oil 150 μL/20 mL plate) was “S” and the “Effect (poison bed, contact action)” value (Rhizoctonia solani [3]; amount oil 150 μL/20 mL plate) was “S”.
